Each compound was assayed against T1, CYP3A4 (Homo sapiens, UniProt P08684) (assay: Cytochrome P450 inhibition assay (midazolam hydroxylation)). Details: human, human liver microsomes, probe midazolam (hydroxylation to 1′-hydroxymidazolam), 10 μM test compound, midazolam at approximately its Km.
T1 construct: pre-incubated with human liver microsomes and NADPH; from tissue; host or cells: human liver microsomes
Assay type: in vitro ADME
Experimental: Compounds were tested for the potential to induce drug-drug interactions by inhibition of the cytochrome P450 3A4 isoform. The assay evaluated the metabolism of a specific marker substrate (CYP3A4, midazolam hydroxylation to 1′-hydroxymidazolam) in the presence or absence of 10 μM test compound. The concentration of the marker substrate was approximately its Km (Dixit et al., Biopharm. Drug Dispos. 2007, 28(5), 257-262). A specific inhibitor for the isoform was included in each run to validate the system. An appropriate positive control inhibitor was used. Mechanism-based inhibition was investigated where warranted using a classical method. To evaluate time-dependent inhibition, parallel samples may have been included where […] was pre-incubated with human liver microsomes and NADPH for 30 min prior to the addition of the P450 substrate. The percent inhibition of the pre-incubated and non-pre-incubated samples were compared as a preliminary evaluation of time-dependent inhibition.

T1 sequence (P08684 whole entry): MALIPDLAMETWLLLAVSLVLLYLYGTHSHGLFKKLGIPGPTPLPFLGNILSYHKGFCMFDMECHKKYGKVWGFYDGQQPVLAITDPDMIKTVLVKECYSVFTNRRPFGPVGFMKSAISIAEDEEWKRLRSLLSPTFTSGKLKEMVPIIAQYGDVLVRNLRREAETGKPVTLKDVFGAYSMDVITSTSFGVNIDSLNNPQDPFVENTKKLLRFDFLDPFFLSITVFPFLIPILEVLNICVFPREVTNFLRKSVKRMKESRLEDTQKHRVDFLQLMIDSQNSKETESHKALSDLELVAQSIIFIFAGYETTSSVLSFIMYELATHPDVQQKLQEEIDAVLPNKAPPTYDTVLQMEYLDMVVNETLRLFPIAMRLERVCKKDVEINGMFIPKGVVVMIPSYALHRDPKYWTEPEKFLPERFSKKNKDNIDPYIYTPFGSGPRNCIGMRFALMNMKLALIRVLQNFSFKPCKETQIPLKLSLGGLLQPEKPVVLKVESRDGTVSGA

Row | Structure (SMILES) | inhibition at 10 µM
1 | Cc1ccc(NC[C@@H]2[C@H](C)CCCN2C(=O)c2cc(C)ccc2-n2nccn2)nc1 [Example A48, ((2S,3R)-3-Methyl-2-(((5-methylpyridin-2-yl)amino)methyl)piperidin-1-yl)(5-methyl-2-(2H-1,2,3-triazol-2-yl)phenyl)methanone] | 74%
2 | Cc1ccc(-c2ccc(F)cc2)c(C(=O)N2CCC[C@@H](C)[C@H]2CNc2ccc(C(F)(F)F)cn2)n1 [Example A73, (3-(4-Fluorophenyl)-6-methylpyridin-2-yl)((2S,3R)-3-methyl-2-(((5-(trifluoromethyl)pyridin-2-yl)amino)methyl)piperidin-1-yl)methanone] | 76%
3 | Cc1ccc(-c2cnn(C)c2)c(C(=O)N2CCC[C@@H](C)[C@H]2CNc2ccc(C(F)(F)F)cn2)n1 [Example A74, ((2S,3R)-3-Methyl-2-(((5-(trifluoromethyl)pyridin-2-yl)amino)methyl)piperidin-1-yl)(6-methyl-3-(1-methyl-H-pyrazol-4-yl)pyridin-2-yl)methanone] | 74%
4 | Cc1ccc(-n2nccn2)c(C(=O)N2CCC[C@@H](C)[C@H]2CNc2cccc(C#N)n2)c1 [Example A81, 6-((((2S,3R)-3-Methyl-1-(5-methyl-2-(2H-1,2,3-triazol-2-yl)benzoyl)piperidin-2-yl)methyl)amino)picolinonitrile] | 67%
5 | Cc1ccc(-c2cnn(C)c2)c(C(=O)N2CCC[C@@H](C)[C@H]2CNc2ncc(C(F)(F)F)cc2F)c1 [Example A83, ((2S,3R)-2-(((3-Fluoro-5-(trifluoromethyl)pyridin-2-yl)amino)methyl)-3-methylpiperidin-1-yl)(5-methyl-2-(1-methyl-1H-pyrazol-4-yl)phenyl)methanone] | 97%

Second part, the compound after the results:

Row | inhibition at 10 µM | Structure (SMILES)
6 | 99% | Cc1ccc(-c2cncs2)c(C(=O)N2CCC[C@@H](C)[C@H]2CNc2nc3cc(Cl)ccc3o2)c1 [Example A34, ((2S,3R)-2-(((5-Chlorobenzo[d]oxazol-2-yl)amino)methyl)-3-methylpiperidin-1-yl)(5-methyl-2-(thiazol-5-yl)phenyl)methanone]
7 | 92% | Cc1ccc(-c2nccc(C)n2)c(C(=O)N2CCC[C@@H](C)[C@H]2CNc2nc3cc(Cl)ccc3o2)c1 [Example A35, ((2S,3R)-2-(((5-Chlorobenzo[d]oxazol-2-yl)amino)methyl)-3-methylpiperidin-1-yl)(5-methyl-2-(4-methylpyrimidin-2-yl)phenyl)methanone]
8 | 97% | Cc1ccc(-c2ccnn2C)c(C(=O)N2CCC[C@@H](C)[C@H]2CNc2nc3cc(Cl)ccc3o2)c1 [Example A36, ((2S,3R)-2-(((5-Chlorobenzo[d]oxazol-2-yl)amino)methyl)-3-methylpiperidin-1-yl)(5-methyl-2-(1-methyl-1H-pyrazol-5-yl)phenyl)methanone]
9 | 96% | Cc1ccc(-c2ccc(C)nc2)c(C(=O)N2CCC[C@@H](C)[C@H]2CNc2nc3cc(Cl)ccc3o2)c1 [Example A38, ((2S,3R)-2-(((5-Chlorobenzo[d]oxazol-2-yl)amino)methyl)-3-methylpiperidin-1-yl)(5-methyl-2-(6-methylpyridin-3-yl)phenyl)methanone]
10 | 96% | COc1ncc(-c2ccc(C)cc2C(=O)N2CCC[C@@H](C)[C@H]2CNc2nc3cc(Cl)ccc3o2)cn1 [Example A39, ((2S,3R)-2-(((5-Chlorobenzo[d]oxazol-2-yl)amino)methyl)-3-methylpiperidin-1-yl) (2-(2-methoxypyrimidin-5-yl)-5-methylphenyl)methanone]
11 | 95% | Cc1ccc(-c2cnn(C)c2)c(C(=O)N2CCC[C@@H](C)[C@H]2CNc2cccc(C#N)n2)c1 [Example A86, 6-((((2S,3R)-3-Methyl-1-(5-methyl-2-(1-methyl-1H-pyrazol-4-yl)benzoyl)piperidin-2-yl)methyl)amino)picolinonitrile]
